# Measured values as given in patent publication US4447626A, “ML-236B Derivatives” (Sankyo Company Limited, priority 1981, dated 1984).
# Test system: cholesterol biosynthesis
# Test: Inhibition of cholesterol biosynthesis (method of J. Biol. Chem. 234, 2835 (1959))
# Assay type: biochemical
# Details: method of Journal of Biological Chemistry, 234, 2835 (1959)
# Excerpt: The inhibitory activities of certain of the compounds of the invention, in terms of the concentration in μg/ml required to inhibit cholesterol biosynthesis by 50% [measured by the method described in the Journal of Biological Chemistry, 234, 2835 (1959)], are as follows: […]
row,Compound,concentration required to inhibit cholesterol biosynthesis by 50% [µg/mL]
1,CC[C@H](C)C(=O)O[C@H]1CC=CC2=CC(OC)[C@H](C)[C@H](CC[C@@H]3C[C@@H](O)CC(=O)O3)[C@H]21 (stereo partly drawn) [6-methoxy-IsoML-236B lactone],0.015
2,"CC[C@H](C)C(=O)O[C@H]1CCC=C2C=C[C@H](C)[C@H](CC[C@@H]3C[C@@H](O)CC(=O)O3)[C@H]21 [ML-236B lactone, reference compound]",0.010
3,"CC[C@H](C)C(=O)O[C@H]1CC=CC2=CC(OC)[C@H](C)[C@H](CC[C@@H](O)C[C@@H](O)CC(=O)O)[C@H]21 (stereo partly drawn) [Sodium 6-methoxy-IsoML-236B carboxylate, sodium 6-methoxy-IsoML-236B carboxylate]",0.0044
